Our source for the Ki values is article PMC11522085, “Studies on the mechanisms of action of MR33317” (Naunyn-Schmiedeberg's Archives of Pharmacology, 2024).

The target of this test is T1, 5-HT4-receptor (5-HT4B membrane preparations) (Homo sapiens, UniProt Q13639).
T1 construct: gene HTR4; 5-HT4B membrane preparations (HTS110M, Millipore), recombinant
Put plainly: radioligand-type competition binding on recombinant 5-HT4B membranes (filtration); partial agonist in cAMP assay. An excerpt:
radioligand-type competition binding on recombinant 5-HT4B membranes (filtration); partial agonist in cAMP assay on 5-HT4-receptor (5-HT4B membrane preparations) | MR33317 bound with high affinity to recombinant 5-HT4-receptor.

Molecules are shown by their SMILES.

T1 sequence (Q13639 whole entry): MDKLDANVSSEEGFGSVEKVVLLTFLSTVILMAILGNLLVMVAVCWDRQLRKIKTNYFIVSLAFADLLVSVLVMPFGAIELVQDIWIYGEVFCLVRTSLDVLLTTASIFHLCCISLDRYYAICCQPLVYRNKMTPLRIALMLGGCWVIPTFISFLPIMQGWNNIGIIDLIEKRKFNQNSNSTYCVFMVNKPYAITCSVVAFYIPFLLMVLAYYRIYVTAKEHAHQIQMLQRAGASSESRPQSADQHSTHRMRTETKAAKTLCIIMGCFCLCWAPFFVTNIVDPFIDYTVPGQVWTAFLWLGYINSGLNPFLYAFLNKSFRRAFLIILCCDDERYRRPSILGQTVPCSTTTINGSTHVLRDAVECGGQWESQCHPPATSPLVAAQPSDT

As for `COc1cc(N)c(Cl)cc1C(=O)CCC1CCN(Cc2cccc(N)c2)CC1` [MR33317], the Ki was 42.5 ± 2.6 nM.
